{"source": "paper PMC3944805", "about": "“Reinterpreting the Mechanism of Inhibition of Mycobacterium tuberculosisD-Alanine:D-Alanine Ligase by D-Cycloserine” (Biochemistry, 2013)", "key": {"[1]": {"molecular_target": "T1, Escherichia coli DdlB (EcDdl) (Escherichia coli, UniProt P07862)", "set-up": "hexahistidine tag (from pET28a+) (N); made in house; host or cells: E. coli BL21; method as in Zawadzke et al., 1991", "settings": "EcDdlB, previously published value in parentheses, ref Zawadzke et al., 1991, cited from earlier work"}, "[2]": {"molecular_target": "T2, Mycobacterium tuberculosis Ddl (MtDdl) (Mycobacterium tuberculosis, UniProt P9WP31)", "T2 construct": "hexahistidine tag; made in house", "T2 sequence (P9WP31 whole entry)": "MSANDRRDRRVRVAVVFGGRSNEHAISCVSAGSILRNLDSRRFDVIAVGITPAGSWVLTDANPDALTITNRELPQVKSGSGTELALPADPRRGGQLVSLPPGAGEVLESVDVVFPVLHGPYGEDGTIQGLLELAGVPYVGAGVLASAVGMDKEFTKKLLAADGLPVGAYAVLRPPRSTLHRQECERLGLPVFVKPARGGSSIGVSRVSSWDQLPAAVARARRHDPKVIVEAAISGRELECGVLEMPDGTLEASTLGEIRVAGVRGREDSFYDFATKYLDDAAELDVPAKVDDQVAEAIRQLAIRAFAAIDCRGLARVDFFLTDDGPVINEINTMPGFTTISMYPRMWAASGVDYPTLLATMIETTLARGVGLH", "settings": "cited from earlier work"}, "C[C@@H](N)C(=O)O": {"test_system": "C[C@@H](N)C(=O)O", "test": "purified protein, by the assay type", "settings": "other: EcDdlB; pH 7.3; 37.0 °C", "quoted_text": "(§3) Time courses for the measurement of slow-onset inhibition were collected on an SX20 stopped-flow spectrometer (Applied Photophysics) at 37 °C, using a 10 mm path-length cell. Data points were recorded every 0.1 s. Catalysis was detected by the same coupled enzyme mechanism as used previously for steady-state kinetic measurements.[4] All reaction mixtures contained 50 mM HEPES (pH 7.3), 10 mM MgCl2, 80 mM KCl, 3 mM ATP, 0.25 mM NADH, 1.5 mM PEP, and a 40 μL/mL pyruvate kinase/lactate dehydrogenase enzyme solution (PK-LDH; stock solution of 600–1000 units/mL PK and 900–1400 units/mL LDH). MtDdl was employed at concentrations from 60 to 290 nM and EcDdl at a final concentration of 30 nM. DCS and D-Ala concentrations were varied as required. Reaction components were sorted into two syringes, with rapid mixing of 60 μL from each starting each reaction. For all assays, both syringes contained HEPES, MgCl2, KCl, NADH, PEP, and PK-LDH. MtDdl and D-Ala were always stored in separate syringes. For analysis of slow-onset inhibition at the C-terminal D-Ala binding site (i.e., data for Figure 1), DCS and Mt/EcDdl were stored in separate reaction mixtures prior to the commencement of the reaction. […]"}, "MtDdl": {"test_system": "MtDdl", "test": "Theoretical calculation of dissociative t1/2 for MtDdl:ATP:D-Ala1:D-Ala2 complex", "set-up": "species or system Mycobacterium tuberculosis", "settings": "theoretical calculations", "description": "Supporting Information to:\nReinterpreting the mechanism of inhibition of Mycobacterium tuberculosis D-Alanine:D-Alanine ligase by D-Cycloserine.\nGareth Prosser and Luiz Pedro S. de Carvalho.\nDivision of Mycobacterial Research, MRC National Institute for Medical Research, The Ridgeway, […]\nTable S1. Steady-state kinetic parameters for MtDdl and EcDdl. […]\naReaction conditions for both enzymes were as previously reported.1 bValues for MtDdl taken from our previous work.1 cValues in parentheses are previously published values.2\nTheoretical calculation of dissociative t1/2 for MtDdl:ATP:D-Ala1:D-Ala2 complex […]\nk = diffusion-rate limited = 1 × 1010 M-1.s-1\nFigure S1. Comparison of dissociative half-lives (t1/2) of MtDdl:ATP:D-Ala:DCS and MtDdl:ATP:D-Ala-D-Ala complexes. Half-life for DCS-containing complex was measured experimentally as described in the main paper. Half-life for D-Ala-only-containing complex was calculated theoretically as described […]\n(1 picture or pasted object on this page, not shown here)"}, "[3]": {"molecular_target": "T1, Escherichia coli DdlB (EcDdl)", "test": "Steady-state kinetics of EcDdl", "quoted_text": "as §3"}, "[4]": {"molecular_target": "T2, Mycobacterium tuberculosis Ddl (MtDdl)", "test": "Slow-onset inhibition of MtDdl by stopped-flow coupled enzyme time courses", "type": "biochemical", "settings": "for koff: read-out: k–2 (DCS dissociation rate constant)", "method": "(§1) Steady-state kinetics and equilibrium binding were performed as previously described.[4] Time courses for the measurement of slow-onset inhibition were collected on an SX20 stopped-flow spectrometer (Applied Photophysics) at 37 °C, using a 10 mm path-length cell. Data points were recorded every 0.1 s. Catalysis was detected by the same coupled enzyme mechanism as used previously for steady-state kinetic measurements.[4] All reaction mixtures contained 50 mM HEPES (pH 7.3), 10 mM MgCl2, 80 mM KCl, 3 mM ATP, 0.25 mM NADH, 1.5 mM PEP, and a 40 μL/mL pyruvate kinase/lactate dehydrogenase enzyme solution (PK-LDH; stock solution of 600–1000 units/mL PK and 900–1400 units/mL LDH). MtDdl was employed at concentrations from 60 to 290 nM and EcDdl at a final concentration of 30 nM. DCS and D-Ala concentrations were varied as required. Reaction components were sorted into two syringes, with rapid mixing of 60 μL from each starting each reaction. For all assays, both syringes contained HEPES, MgCl2, KCl, NADH, PEP, and PK-LDH. MtDdl and D-Ala were always stored in separate syringes. For analysis of slow-onset inhibition at the C-terminal D-Ala binding site (i.e., data for Figure 1), DCS and Mt/EcDdl were stored in separate reaction mixtures prior to the commencement of the reaction. For analysis of slow-onset inhibition at the N-terminal D-Ala site (i.e., data for Figure 2), MtDdl and DCS (with or without ATP) were stored in the same reaction mixture (for at least 4 min) prior to the commencement of the reaction.\n(§2) Individual time course data were fit using eq 1 [drawing 1] 1 where [P]t is the product formed at time t, [E] is the total MtDdl concentration, vi is the initial rate, vf is the final (steady-state) rate, and kobs is the apparent rate constant for approach to the steady state.[7] Time courses were performed in triplicate and kobs values averaged for each DCS and D-Ala concentration tested. Secondary replots of kobs versus DCS concentration were fit using eq 2 [drawing 2] 2 where [I] is the DCS concentration, [S] is the D-Ala concentration, and k2 and k–2 are rate constants as described in Scheme 2. The Km value was that for the C-terminal site (4 mM), as previously reported.[4]"}, "[5]": {"molecular_target": "T1, Escherichia coli DdlB (EcDdl)", "test": "Slow-onset inhibition of EcDdl by stopped-flow coupled enzyme time courses", "type": "biochemical", "set-up": "hexahistidine tag (from pET28a+) (N); made in house; host or cells: E. coli BL21", "method": "as §1, §2"}, "[6]": {"settings": "MtDdl preincubated with ATP with DCS, MtDdl–ATP complex, 40 mM D-Ala, 3 mM ATP"}, "[7]": {"settings": "MtDdl preincubated with ATP, C-terminal D-Ala site, averaged over 0.4 to 40 mM D-Ala, 37 °C, pH 7.3"}, "[8]": {"settings": "EcDdl preincubated with ATP, only 0.75 mM D-Ala tested"}}, "note": "Where two headings read alike, the source gives them in different places."}
{"compound": "C[C@@H](N)C(=O)O", "note": "[D-Ala, D-alanine]", "values": [{"measurement": "Km", "setting": "[1]; read-out: Km,D-Ala2", "value": 1.2, "unit": "mM"}, {"measurement": "Km", "setting": "[2]; read-out: Km for the C-terminal site, value used in eq 2", "value": 4, "unit": "mM"}, {"measurement": "Km", "setting": "[2]; read-out: Km,D-Ala2, C-terminal site, previous work, ref Prosser and de Carvalho, 2013", "value": "3.6 ± 0.6", "unit": "mM"}]}
{"compound": "Escherichia coli DdlB (EcDdl) (Escherichia coli K-12)", "values": [{"measurement": "Km", "setting": "C[C@@H](N)C(=O)O", "value": "0.8 ± 0.07", "unit": "mM"}]}
{"compound": "N[C@@H]1CONC1=O", "note": "[DCS, (R)-4-amino-1,2-oxazolidin-3-one]", "values": [{"measurement": "DCS–MtDdl complex residence time longer than that for the D-Ala–MtDdl complex", "setting": "MtDdl", "value": "up to 8 orders of magnitude"}, {"measurement": "Ki", "setting": "[3]", "value": "44 ± 10", "unit": "µM"}, {"measurement": "Ki", "setting": "[1]; read-out: Ki,DCS2", "value": 27, "unit": "µM"}, {"measurement": "Ki", "setting": "[2]; MtDdl–ATP–D-Ala complex, previous work, read-out: Ki,DCS2", "value": 25, "unit": "µM"}, {"measurement": "Ki", "setting": "[2]; previous data, read-out: Ki,DCS1", "value": 15, "unit": "µM"}, {"measurement": "stability by one-dimensional NMR", "setting": "across all pHs tested over the time frame of the experiment", "value": "stable"}, {"measurement": "stability by one-dimensional and 13C HSQC NMR", "setting": "in the presence and absence of enzyme (and other buffer components)", "value": "no spectral changes"}, {"measurement": "t1/2 (dissociative half-life)", "setting": "[4]; MtDdl preincubated with ATP with DCS, MtDdl–ATP complex", "value": 25, "unit": "s"}, {"measurement": "k2 (DCS binding rate constant)", "setting": "[4]; [6]", "value": "373 ± 11", "unit": "M^–1 s^–1"}, {"measurement": "koff", "setting": "[4]; [6]", "value": "0.028 ± 0.001", "unit": "s⁻¹"}, {"measurement": "k2 (DCS binding rate constant)", "setting": "[4]; [7]", "value": "888 ± 36", "unit": "M^–1 s^–1"}, {"measurement": "koff", "setting": "[4]; [7]", "value": "0.014 ± 0.003", "unit": "s⁻¹"}, {"measurement": "t1/2 (dissociative half-life)", "setting": "[4]; MtDdl preincubated with ATP, MtDdl:ATP:D-Ala:DCS complex", "value": 48, "unit": "s"}, {"measurement": "fold faster rate of association of the enzyme–inhibitor complex (k2), EcDdl vs MtDdl", "setting": "[5]; EcDdl compared with MtDdl", "value": "> 3", "unit": "fold"}, {"measurement": "fold faster rate of dissociation of the enzyme–inhibitor complex (k–2), EcDdl vs MtDdl", "setting": "[5]; EcDdl compared with MtDdl", "value": 10, "unit": "fold"}, {"measurement": "k2 (DCS binding rate constant)", "setting": "[5]; [8]", "value": "2970 ± 360", "unit": "M^–1 s^–1"}, {"measurement": "t1/2 (dissociative half-life)", "setting": "[5]; [8]", "value": 5, "unit": "s"}, {"measurement": "koff", "setting": "[5]; EcDdl preincubated with ATP, only 0.75 mM D-Ala tested, read-out: k–2 (DCS dissociation rate constant)", "value": "0.13 ± 0.03", "unit": "s⁻¹"}]}
